Data taken from patent US20250120928A1 (University of Maryland, Baltimore, priority 2021, published 2025).

Key:
[1] = biological target: T1, HDAC6 (Homo sapiens, UniProt Q9UBN7); experiment: Fluorescence-based HDAC activity assay with fluorogenic peptide substrate (Reaction Biology); type: biochemical
T1 construct: purchased Reaction Biology Corporation
T1 sequence (Q9UBN7 1-1215): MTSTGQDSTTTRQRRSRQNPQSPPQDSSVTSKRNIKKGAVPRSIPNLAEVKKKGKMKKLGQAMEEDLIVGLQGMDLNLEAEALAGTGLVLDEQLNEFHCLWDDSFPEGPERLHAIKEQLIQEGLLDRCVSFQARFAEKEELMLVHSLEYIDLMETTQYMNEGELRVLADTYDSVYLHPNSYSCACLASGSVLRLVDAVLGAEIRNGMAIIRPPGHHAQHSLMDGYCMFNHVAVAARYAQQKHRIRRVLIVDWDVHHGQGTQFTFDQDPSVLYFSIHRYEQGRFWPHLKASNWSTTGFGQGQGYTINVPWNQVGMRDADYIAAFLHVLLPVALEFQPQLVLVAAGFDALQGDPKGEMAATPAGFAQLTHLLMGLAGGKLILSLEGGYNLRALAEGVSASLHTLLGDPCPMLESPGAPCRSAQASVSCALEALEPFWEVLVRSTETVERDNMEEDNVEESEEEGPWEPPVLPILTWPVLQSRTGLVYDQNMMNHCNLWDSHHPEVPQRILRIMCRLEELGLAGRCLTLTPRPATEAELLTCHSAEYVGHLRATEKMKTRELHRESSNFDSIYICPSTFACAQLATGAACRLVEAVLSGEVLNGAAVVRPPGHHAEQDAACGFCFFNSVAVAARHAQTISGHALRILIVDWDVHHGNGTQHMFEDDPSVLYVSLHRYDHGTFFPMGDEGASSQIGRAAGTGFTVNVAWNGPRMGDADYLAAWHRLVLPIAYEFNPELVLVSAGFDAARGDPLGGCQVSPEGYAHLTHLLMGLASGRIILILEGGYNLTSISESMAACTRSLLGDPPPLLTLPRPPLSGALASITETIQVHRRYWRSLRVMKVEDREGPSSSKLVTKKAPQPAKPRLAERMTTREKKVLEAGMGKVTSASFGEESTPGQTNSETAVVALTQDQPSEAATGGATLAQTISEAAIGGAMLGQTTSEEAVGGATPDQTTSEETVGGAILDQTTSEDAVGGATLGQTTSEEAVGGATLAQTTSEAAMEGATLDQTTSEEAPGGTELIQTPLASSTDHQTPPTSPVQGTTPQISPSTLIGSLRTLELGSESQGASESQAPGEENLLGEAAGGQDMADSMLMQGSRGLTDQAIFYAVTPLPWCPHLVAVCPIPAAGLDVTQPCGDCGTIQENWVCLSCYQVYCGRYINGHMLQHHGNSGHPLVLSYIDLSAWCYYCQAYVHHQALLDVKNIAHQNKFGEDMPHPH
Experimental: Fluorescence-based activity assays using fluorogenic peptides as substrates for HDAC1, 2, 3, 6, and 8 were performed by Reaction Biology Corporation (reactionbiology.com). […] The substrate for HDACs 1, 2, 3, and 6 was a fluorogenic peptide from p53 residues 379-382 (RHKK(Ac)AMC) (SEQ ID NO: 1). The substrate for HDAC8 was a fluorogenic peptide from p53 residues 379-382 (RHK(Ac)K(Ac)AMC) (SEQ ID NO: 2). SAHA-OH IC50 values were calculated using GraphPad Prism 4 program based on a sigmoidal dose-response equation. The blank (DMSO) value was entered as 1.00×10^−12 of concentration for curve fitting.

[2] = test system: B cells (B220+) isolated from splenocytes; experiment: Splenocyte apoptosis and cell death by AV/PI flow cytometry, B cells; type: cell-based
Experimental: Splenocytes were isolated from spleens as previously described. Briefly, 5-12-week C57BL/6J female mice were euthanized and the spleen was isolated. The spleen was processed into single-cell suspensions using a 40 μm cell strainer and flushed with cold PBS supplemented with 1% FBS and 0.4% 0.5 M EDTA (Quality Biological, Gaithersburg, MD). Erythrocytes were lysed with ACK lysis buffer (Quality Biological, Gaithersburg, MD). […] Subsequently, splenocytes were stimulated with 100 ng/mL LPS for 24 hours. Splenocytes were then washed with cold PBS supplemented with 1% FBS and 0.4% 0.5 M EDTA and FcR blocked, as previously mentioned. Splenocytes were then stained with purified anti-mouse PE/Cyanine7 CD45R/B220 antibody (#103222) (BioLegend, San Diego, CA) for the B cell population. SAHA and SAHA-OH apoptosis and cell death were then assessed using the FITC-AV Apoptosis Detection Kit with PI via flow cytometry, as previously mentioned. Flow cytometry data were collected using a Cytex Aurora flow cytometer. Flow plots and data processing was done using FCS Express 7 Flow Cytometry De Novo Software (De Novo, Glendale, CA).

less selective HDAC6 inhibition compared to Tubastatin A ([1]; 23 nM compared to […] nM): 1.5 fold | IC50 ([1]; read-out: IC50 against HDAC6): 23 nM
SMILES: O=C(CCCCCCC(=O)Nc1ccc(CO)cc1)NO [SAHA-OH, N^1-hydroxy-N^8-(4-(hydroxymethyl)phenyl)octanediamide]
toxicity profile for the B cell population ([2]; 0-30 μM): concentration-dependent toxicity profiles | decrease in cell death of the B cell population versus SAHA ([2]; 10 μM): 3 fold | enhancement in viability of the B cell population versus SAHA ([2]; 10 μM): 5 fold
